From patent US11578110B2, “Compounds for inducing tissue formation and uses thereof” (HISTIDE AG, priority 2015, dated 2023)
No end group written: not given here.

What follows are sequences tested on hMSCs (assay: STRO-1 stemness marker expression in hMSCs (immunostaining, ImageJ quantification)). Conditions: SEQ ID NO: 1 to 49 tested in combination with a bioactive carrier (titanium, ceramics, PEEK, hydrogel, etc.).
Assay type: cell-based, Human
Procedure: The cells were first fixed for 20 min with 4% paraformaldehyde/PBS at 4° C. After fixation, the cells were permeabilized in PBS containing 1% Triton X-100 for 15 min. Runx2, Osterix, Stro-1, Vinculin, Phalloidin, Osteopontin, Sox2, Sox9 antibodies were visualized by treating the cells with 1% (v/v) specific monoclonal antibodies for 1 hour at 37° C. Then the samples were incubated with Alexa fluor® 568 or 647 (F(ab′)2 fragment of IgG(H+L)) during 30 min at room temperature. The cell nuclei were counterstained in 20 ng/mL DAPI for 10 min at room temperature.
For this type of quantification the freeware image analysis ImageJ® software was used. The raw image was first converted to an 8-bit file, and then the unsharp mask feature was used (settings 1:0.2) to remove the image background (rolling ball radius 10). After smoothing, the resulting image, which appears similar to the original photomicrograph but with minimal background, was then converted to a binary image by setting a threshold. Threshold values were determined empirically by selecting a setting, which gave the most accurate binary image for a subset of randomly selected photomicrographs. The cell area was determined by manual delineation on raw fluorescent images. Total contact area and mean contact area per cell were calculated by “analyse particles” in ImageJ®. A minimum of 30 cells per condition were analyzed. Stro-1, CD-34+, and CD-105 expressions were determined using this procedure.
hMSCs were cultured on conventional cell culture plastic plates with or without the presence in the cell culture media of different GFR-binding compounds as defined hereins (SEQ ID NO: 50 to 104) in solution. […] This was probed by Stro-1 immunostaining after cell fixation as described in the Methods section. The quantification of Stro-1 positive contact numbers and areas was performed as described in the Methods section. A minimum of 30 cells per condition were analyzed.
RMSD values are always calculated for a GFR-binding peptide sequence exempt from any bioactive-carrier-affinity-containing group as defined herein (e.g. cysteine, WWFWG, GTPGP, etc. . . . ). When needed i.e. when attachment to a bioactive carrier is contemplated, the bioactive-carrier-affinity-containing group is then present in the GFR-binding compound when it is biologically tested. Using the method detailed in the description, the RMSD of 57 previously reported peptide sequences have been determined (Table 6) and correlated with the expression of STRO-1 after grafted on a PET surface via a procedure as already described above. […] One should note that it is commonly admitted that the expression of STRO-1 in a cell is indicative of a cell that is in a substantially non-differentiated state and the decrease of its expression of at least about 20% is indicative of a cell that has started a processes of differentiation but which may not result in the differentiation of the cell. A decrease of more than 50% would be indicative of the presence of a significant shift towards a differentiated state. A decrease of more than 70% would be indicative of the presence of a very important shift towards a differentiated state. A sustained decrease (e.g. for at least 96 h) of more than 50% or 70% would be indicative of the presence of an even more important shift towards a differentiated state.
Likewise, using the method detailed in the description, the RMSD of 87 GFR-binding peptide sequence representatives of the invention have been determined (Table 7) and correlated with the expression of STRO-1 after grafted on a PET surface via a procedure as already described above. SEQ ID NO: 1 to 49 were tested in combination with a bioactive carrier as defined above in the Examples Section (i.e. titanium, ceramics, PEEK, hydrogel, etc. . . . ), whereas SEQ ID NO: 1143 to 1180 were tested in solution.

Compared with AAPASSSVPTRLSAISMLYL [SEQ ID NO: 2], ASAAPSSVPAALSPISILYI [SEQ ID NO: 44] is lower in STRO-1 expression: 18% for the first, 15% for the second.

Compared with ASASPSSTQVDLRPVQVRKI [SEQ ID NO: 40], ASASPSSVSQDLSAISMLYL [SEQ ID NO: 15] is lower in STRO-1 expression: 36% for the first, 13% for the second.

Going from AVPKASSAPTKLSAISMLYL [SEQ ID NO: 19] to GGGKASSVPTKLSAISMLYL [SEQ ID NO: 21], the STRO-1 expression rises from 19% to 30%.

Compared with GIPEPSSVPEKMSATSVLYY [SEQ ID NO: 7], GSAGPSSVPTKMSAISMLYL [SEQ ID NO: 1] is lower in STRO-1 expression: 22% for the first, 21% for the second.

Compared with GSAGPSSVPTKMSPISVLYK [SEQ ID NO: 8], “GTPGPAAPASSSVPARLSAISMLYL (not fully specified) [SEQ ID NO: 35]” is lower in STRO-1 expression: 31% for the first, 19% for the second.

First: GTPGPASSVPTKLSAISMLYL (GTPGPAXXVPTKLSAISMLYL; GFR-binding peptide; MOD_RES (7)..(8): Xaa is C or S) [SEQ ID NO: 26]
Second: GTPGPGSAGPSSTPTKMSAISMLYL (GTPGPGSAGPXXTPTKMSAISMLYL; GFR-binding peptide; MOD_RES (11)..(12): Xaa is C or S) [SEQ ID NO: 34]
The STRO-1 expression of the first is lower: 23% for the first, 26% for the second.

Going from “GTPGPNDEGLESAPTGQNAISVLYF (GTPGPNDEGLEXAPTGQNAISVLYF; GFR-binding peptide; MOD_RES (12)..(12): Xaa is C or S) [SEQ ID NO: 31]” to “GTPGPPSSVPTKLSPISVLYK (GTPGPPXXVPTKLSPISVLYK; GFR-binding peptide; MOD_RES (7)..(8): Xaa is C or S) [SEQ ID NO: 30]”, the STRO-1 expression falls from 32% to 26%.

Going from “GTPGPPTSVPTKLSPISVLYK (GFR-binding peptide) [SEQ ID NO: 29]” to “GTPGPVPQELEPLTILYY (GFR-binding peptide) [SEQ ID NO: 24]”, the STRO-1 expression falls from 27% to 16%.

Going from “GTPGPVPTEESAISMLYL (GFR-binding peptide) [SEQ ID NO: 28]” to “GTPGPVPTELSPISVLYK (GFR-binding peptide) [SEQ ID NO: 25]”, the STRO-1 expression falls from 22% to 17%.

Compared with “GTPGPVPTGQSAISMLYL (GFR-binding peptide) [SEQ ID NO: 27]”, HVPKPSSAPTKLSAISMLYL [SEQ ID NO: 12] is higher in STRO-1 expression: 24% for the first, 28% for the second.

First: HVPKPSSVPTKLSPISVLYK [SEQ ID NO: 16]
Second: HVTKPTSVPEKLSSLSILFF [SEQ ID NO: 9]
The STRO-1 expression of the first is lower: 23% for the first, 29% for the second.

Same assay, conditions: SEQ ID NO: 1143 to 1180 tested in solution

First: AASKASSSRVELRSVKIAKV (GFR-binding peptide) [SEQ ID NO: 1152]
Second: AASKASSSRVKMSPINVLYF (GFR-binding peptide) [SEQ ID NO: 1167]
The STRO-1 expression of the first is higher: 33% for the first, 19% for the second.

Compared with “AASKASSTPTDLNAISTLYF (GFR-binding peptide) [SEQ ID NO: 1158]”, “AASKASSVPEKMRPVQTRKI (GFR-binding peptide) [SEQ ID NO: 1179]” is higher in STRO-1 expression: 20% for the first, 32% for the second.

Going from “AASKASSVPQEEEPLPMVYY (GFR-binding peptide) [SEQ ID NO: 1149]” to “AASKASSVPQRLRSVKVAKV (GFR-binding peptide) [SEQ ID NO: 1177]”, the STRO-1 expression rises from 23% to 31%.

Compared with “GIPEPSSAPTELSATSILYY (GFR-binding peptide) [SEQ ID NO: 1146]”, “GIPEPSSAPTRLEPISMLYL (GFR-binding peptide) [SEQ ID NO: 1164]” is lower in STRO-1 expression: 20% for the first, 16% for the second.

First: GIPEPSSAPVDLKPLSTLYV (GFR-binding peptide) [SEQ ID NO: 1148]
Second: GIPEPSSAPVDMRPVQIRKI (GFR-binding peptide) [SEQ ID NO: 1180]
The STRO-1 expression of the first is lower: 11% for the first, 30% for the second.

Compared with “GIPEPSSAPVEEEPLTTLYY (GFR-binding peptide) [SEQ ID NO: 1174]”, “GIPEPSSAPVGQEPLPMVYY (GFR-binding peptide) [SEQ ID NO: 1172]” is higher in STRO-1 expression: 21% for the first, 28% for the second.

Compared with “GIPEPSSVSQEESSLSTLFF (GFR-binding peptide) [SEQ ID NO: 1156]”, “GIPEPSSVSQELSATSMLYY (GFR-binding peptide) [SEQ ID NO: 1160]” is higher in STRO-1 expression: 19% for the first, 22% for the second.

Same assay, conditions: grafted on a PET surface

First: AETLHTLGLSAPVIESAISDAI (Previously reported sequence) [SEQ ID NO: 1136, reference compound]
Second: ANINKDRDNVPAATSSLSKAYNP (Previously reported sequence) [SEQ ID NO: 1119, reference compound]
The STRO-1 expression of the first is higher: 93% for the first, 92% for the second.

Compared with “APTKLNAISVLYFDDSSNVILKKYRNMIVKS (Previously reported sequence) [SEQ ID NO: 1126, reference compound]”, “APTQLSAISVL (Previously reported sequence) [SEQ ID NO: 1127, reference compound]” is higher in STRO-1 expression: 84% for the first, 93% for the second.

First: CCAPTELSAISVLYFDDSSNVILKKYRNMVVRACGCR (Previously reported sequence) [SEQ ID NO: 1139, reference compound]
Second: CCAPTQLSAISVLYFDDSSNVILKKYRNMVVRACGCR (Previously reported sequence) [SEQ ID NO: 1140, reference compound]
The STRO-1 expression of the first is lower: 81% for the first, 82% for the second.

Going from “CIPKPSSAPTELSAISMLYL (Previously reported sequence) [SEQ ID NO: 1134, reference compound]” to “CKIPKPSSAPTELSAISMLYL (Previously reported sequence) [SEQ ID NO: 1135, reference compound]”, the STRO-1 expression falls from 83% to 78%.

Going from “CPKPSSAPTELSAISMLL (Previously reported sequence) [SEQ ID NO: 1130, reference compound]” to “CVTKPLSSLLFPNWNTTTTPTPP (Previously reported sequence) [SEQ ID NO: 1102, reference compound]”, the STRO-1 expression rises from 79% to 92%.

First: DKPEESSSTPTHAQCICSSLSEAIVSSVLSTRLVLSQISLTRAKRAFE (Previously reported sequence) [SEQ ID NO: 1121, reference compound]
Second: DPLPIIYYVGRNVRVEQLSNMVVRACKCS (Previously reported sequence) [SEQ ID NO: 1089, reference compound]
The STRO-1 expression of the first is lower: 87% for the first, 97% for the second.

First: ENVNLKKYRNMIVKSCGCH (Previously reported sequence) [SEQ ID NO: 1090, reference compound]
Second: FDSRVLKSAISFKENIIF (Previously reported sequence) [SEQ ID NO: 1128, reference compound]
The STRO-1 expression of the first is higher: 97% for the first, 89% for the second.

“HIRSTTSSYVSLKSNITNRTIQTPTYSYT (Previously reported sequence) [SEQ ID NO: 1092, reference compound]” and “IKSPARHSAPTHQEPLP (Previously reported sequence) [SEQ ID NO: 1097, reference compound]” are the same in STRO-1 expression: 98% for the first, 98% for the second.

“KGSEYEKLVVSGITQVYQSSLSWHGCKSCCEVQVXNLXILIRLYDVHYYN (not fully specified; X: residue not identified in the source; ends and bridges not checked) [SEQ ID NO: 1122, reference compound]” showed an STRO-1 expression of 88%.
